Laboratory results from ChEMBL document CHEMBL4725279, “Design and synthesis of peptide-based chimeric molecules to induce degradation of the estrogen and androgen receptors” (Bioorg Med Chem, 2020).

Legend:
Type in all cases: cell-based
[1] = biological target: T1, Protein cereblon/Androgen receptor (Homo sapiens) (UniProt P10275+Q96SW2); assay: Protac activity at CRBN/AR in human MCF7 cells assessed as induction of AR protein degradation incubated for 8 to 24 hrs by western blot analysis; details: time hrs 8-24
[2] = biological target: T2, Protein cereblon/Estrogen receptor (Homo sapiens) (UniProt P03372+Q96SW2); assay: Protac activity at CRBN/ERalpha in human MCF7 cells assessed as induction of ERalpha protein degradation incubated for 8 to 24 hrs by western blot analysis; details: time hrs 8-24
[3] = biological target: T1, Protein cereblon/Androgen receptor (Homo sapiens); assay: Protac activity at CRBN/AR in human MCF7 cells assessed as induction of AR protein degradation by measuring AR protein level at 10 uM incubated for 8 hrs by western blot analysis relative to lamin B
[4] = biological target: T1, Protein cereblon/Androgen receptor (Homo sapiens); assay: Protac activity at CRBN/AR in human MCF7 cells assessed as induction of AR protein degradation by measuring AR protein level at 5 uM incubated for 8 hrs by western blot analysis relative to lamin B
[5] = biological target: T1, Protein cereblon/Androgen receptor (Homo sapiens); assay: Protac activity at CRBN/AR in human MCF7 cells assessed as induction of AR protein degradation by measuring AR protein level at 20 uM incubated for 8 hrs by western blot analysis relative to lamin B
[6] = biological target: T2, Protein cereblon/Estrogen receptor (Homo sapiens); assay: Protac activity at CRBN/ERalpha in human MCF7 cells assessed as induction of ERalpha protein degradation by measuring ERalpha protein level at 5 uM incubated for 8 hrs by western blot analysis relative to lamin B
[7] = biological target: T2, Protein cereblon/Estrogen receptor (Homo sapiens); assay: Protac activity at CRBN/ERalpha in human MCF7 cells assessed as induction of ERalpha protein degradation by measuring ERalpha protein level at 10 uM incubated for 8 hrs by western blot analysis relative to lamin B
[8] = biological target: T2, Protein cereblon/Estrogen receptor (Homo sapiens); assay: Protac activity at CRBN/ERalpha in human MCF7 cells assessed as induction of ERalpha protein degradation by measuring ERalpha protein level at 20 uM incubated for 8 hrs by western blot analysis relative to lamin B
[9] = biological target: T1, Protein cereblon/Androgen receptor (Homo sapiens); assay: Protac activity at CRBN/AR in human MCF7 cells assessed as induction of AR protein degradation by measuring AR protein level at 5 uM incubated for 24 hrs by western blot analysis relative to lamin B
[10] = biological target: T1, Protein cereblon/Androgen receptor (Homo sapiens); assay: Protac activity at CRBN/AR in human MCF7 cells assessed as induction of AR protein degradation by measuring AR protein level at 10 uM incubated for 24 hrs by western blot analysis relative to lamin B
[11] = biological target: T1, Protein cereblon/Androgen receptor (Homo sapiens); assay: Protac activity at CRBN/AR in human MCF7 cells assessed as induction of AR protein degradation by measuring AR protein level at 20 uM incubated for 24 hrs by western blot analysis relative to lamin B
[12] = biological target: T2, Protein cereblon/Estrogen receptor (Homo sapiens); assay: Protac activity at CRBN/ERalpha in human MCF7 cells assessed as induction of ERalpha protein degradation by measuring ERalpha protein level at 5 uM incubated for 24 hrs by western blot analysis relative to lamin B
[13] = biological target: T2, Protein cereblon/Estrogen receptor (Homo sapiens); assay: Protac activity at CRBN/ERalpha in human MCF7 cells assessed as induction of ERalpha protein degradation by measuring ERalpha protein level at 10 uM incubated for 24 hrs by western blot analysis relative to lamin B
[14] = biological target: T2, Protein cereblon/Estrogen receptor (Homo sapiens); assay: Protac activity at CRBN/ERalpha in human MCF7 cells assessed as induction of ERalpha protein degradation by measuring ERalpha protein level at 20 uM incubated for 24 hrs by western blot analysis relative to lamin B
[15] = biological target: T3, Protein cereblon/Aryl hydrocarbon receptor (Homo sapiens, UniProt P35869+Q96SW2); assay: Protac activity at CRBN/AhR in human MCF7 cells assessed as induction of AhR protein degradation by measuring AhR protein level at 5 uM incubated for 8 hrs by western blot analysis relative to lamin B; details: mcf7, 8 h
[16] = biological target: T3, Protein cereblon/Aryl hydrocarbon receptor; assay: Protac activity at CRBN/AhR in human MCF7 cells assessed as induction of AhR protein degradation by measuring AhR protein level at 10 uM incubated for 8 hrs by western blot analysis relative to lamin B; details: mcf7, 8 h
[17] = biological target: T3, Protein cereblon/Aryl hydrocarbon receptor; assay: Protac activity at CRBN/AhR in human MCF7 cells assessed as induction of AhR protein degradation by measuring AhR protein level at 20 uM incubated for 8 hrs by western blot analysis relative to lamin B; details: mcf7, 8 h
[18] = biological target: T3, Protein cereblon/Aryl hydrocarbon receptor; assay: Protac activity at CRBN/AhR in human MCF7 cells assessed as induction of AhR protein degradation by measuring AhR protein level at 5 uM incubated for 24 hrs by western blot analysis relative to lamin B; details: mcf7, 24 h
[19] = biological target: T3, Protein cereblon/Aryl hydrocarbon receptor; assay: Protac activity at CRBN/AhR in human MCF7 cells assessed as induction of AhR protein degradation by measuring AhR protein level at 10 uM incubated for 24 hrs by western blot analysis relative to lamin B; details: mcf7, 24 h
[20] = biological target: T3, Protein cereblon/Aryl hydrocarbon receptor; assay: Protac activity at CRBN/AhR in human MCF7 cells assessed as induction of AhR protein degradation by measuring AhR protein level at 20 uM incubated for 24 hrs by western blot analysis relative to lamin B; details: mcf7, 24 h
[21] = biological target: T1, Protein cereblon/Androgen receptor (Homo sapiens); assay: Protac activity at CRBN/AR in human MCF7 cells assessed as induction of AR protein degradation by measuring AR protein level at 20 uM incubated for 8 hrs in presence of proteasome inhibitor, MG132 by western blot analysis relative to lamin B
[22] = biological target: T1, Protein cereblon/Androgen receptor (Homo sapiens); assay: Protac activity at CRBN/AR in human MCF7 cells assessed as induction of AR protein degradation by measuring AR protein level at 20 uM incubated for 8 hrs in presence of ubiquitin activating inhibitor MLN7243 by western blot analysis relative to lamin B
[23] = biological target: T2, Protein cereblon/Estrogen receptor (Homo sapiens); assay: Protac activity at CRBN/ERalpha in human MCF7 cells assessed as induction of ERalpha protein degradation by measuring ERalpha protein level at 20 uM incubated for 8 hrs in presence of proteasome inhibitor, MG132 by western blot analysis relative to lamin B
[24] = biological target: T2, Protein cereblon/Estrogen receptor (Homo sapiens); assay: Protac activity at CRBN/ERalpha in human MCF7 cells assessed as induction of ERalpha protein degradation by measuring ERalpha protein level at 20 uM incubated for 8 hrs in presence of ubiquitin activating inhibitor MLN7243 by western blot analysis relative to lamin B
[25] = biological target: T3, Protein cereblon/Aryl hydrocarbon receptor; assay: Protac activity at CRBN/AhR in human MCF7 cells assessed as induction of AhR protein degradation by measuring AhR protein level at 20 uM incubated for 8 hrs in presence of proteasome inhibitor, MG132 by western blot analysis relative to lamin B; details: mcf7, 8 h
[26] = biological target: T3, Protein cereblon/Aryl hydrocarbon receptor; assay: Protac activity at CRBN/AhR in human MCF7 cells assessed as induction of AhR protein degradation by measuring AhR protein level at 20 uM incubated for 8 hrs in presence of ubiquitin activating inhibitor MLN7243 by western blot analysis relative to lamin B; details: mcf7, 8 h
[27] = biological target: T1, Protein cereblon/Androgen receptor (Homo sapiens); assay: Protac activity at CRBN/AR in CRBN siRNA-transfected human MCF7 cells assessed as induction of AR protein degradation by measuring AR protein level at 20 uM incubated for 8 hrs by western blot analysis relative to lamin B
[28] = biological target: T2, Protein cereblon/Estrogen receptor (Homo sapiens); assay: Protac activity at CRBN/ERalpha in CRBN siRNA-transfected human MCF7 cells assessed as induction of ERalpha protein degradation by measuring ERalpha protein level at 20 uM incubated for 8 hrs by western blot analysis relative to lamin B

T1 sequence (P10275 whole entry, looked up): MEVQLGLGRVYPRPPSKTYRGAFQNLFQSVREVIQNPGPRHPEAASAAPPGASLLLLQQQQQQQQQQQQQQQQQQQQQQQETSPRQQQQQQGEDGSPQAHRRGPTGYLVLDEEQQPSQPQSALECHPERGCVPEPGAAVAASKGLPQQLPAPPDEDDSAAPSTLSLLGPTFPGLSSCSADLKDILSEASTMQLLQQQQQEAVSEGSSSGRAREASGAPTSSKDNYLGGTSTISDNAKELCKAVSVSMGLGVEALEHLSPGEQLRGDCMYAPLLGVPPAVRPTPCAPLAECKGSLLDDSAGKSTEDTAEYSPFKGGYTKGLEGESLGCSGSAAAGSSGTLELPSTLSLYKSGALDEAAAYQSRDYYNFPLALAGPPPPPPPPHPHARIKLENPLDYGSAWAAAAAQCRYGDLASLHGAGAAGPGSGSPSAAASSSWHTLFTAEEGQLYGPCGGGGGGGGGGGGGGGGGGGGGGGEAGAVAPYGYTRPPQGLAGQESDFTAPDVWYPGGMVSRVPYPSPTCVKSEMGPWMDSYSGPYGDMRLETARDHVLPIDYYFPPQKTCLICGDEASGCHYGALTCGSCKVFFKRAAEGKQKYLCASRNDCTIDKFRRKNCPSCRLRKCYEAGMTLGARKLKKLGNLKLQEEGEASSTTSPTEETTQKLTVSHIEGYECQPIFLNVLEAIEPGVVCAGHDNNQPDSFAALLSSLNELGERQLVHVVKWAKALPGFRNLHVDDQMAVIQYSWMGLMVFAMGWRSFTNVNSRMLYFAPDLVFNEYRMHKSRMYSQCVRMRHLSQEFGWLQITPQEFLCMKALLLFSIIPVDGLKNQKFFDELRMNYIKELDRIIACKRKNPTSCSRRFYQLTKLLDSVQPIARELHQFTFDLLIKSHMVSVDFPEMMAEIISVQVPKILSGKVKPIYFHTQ
T1 sequence (Q96SW2 whole entry, looked up): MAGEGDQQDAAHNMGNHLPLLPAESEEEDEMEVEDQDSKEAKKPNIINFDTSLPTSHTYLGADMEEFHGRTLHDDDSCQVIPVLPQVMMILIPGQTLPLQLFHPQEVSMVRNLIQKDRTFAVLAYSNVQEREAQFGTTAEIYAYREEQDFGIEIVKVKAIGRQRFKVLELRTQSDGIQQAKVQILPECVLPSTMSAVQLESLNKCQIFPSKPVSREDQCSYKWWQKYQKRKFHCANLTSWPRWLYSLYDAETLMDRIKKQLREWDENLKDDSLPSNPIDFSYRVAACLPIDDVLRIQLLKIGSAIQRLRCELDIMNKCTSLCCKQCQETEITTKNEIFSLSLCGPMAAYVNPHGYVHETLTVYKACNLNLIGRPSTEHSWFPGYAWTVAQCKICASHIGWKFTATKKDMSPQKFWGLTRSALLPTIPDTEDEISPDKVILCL
T2 sequence (P03372 whole entry, looked up): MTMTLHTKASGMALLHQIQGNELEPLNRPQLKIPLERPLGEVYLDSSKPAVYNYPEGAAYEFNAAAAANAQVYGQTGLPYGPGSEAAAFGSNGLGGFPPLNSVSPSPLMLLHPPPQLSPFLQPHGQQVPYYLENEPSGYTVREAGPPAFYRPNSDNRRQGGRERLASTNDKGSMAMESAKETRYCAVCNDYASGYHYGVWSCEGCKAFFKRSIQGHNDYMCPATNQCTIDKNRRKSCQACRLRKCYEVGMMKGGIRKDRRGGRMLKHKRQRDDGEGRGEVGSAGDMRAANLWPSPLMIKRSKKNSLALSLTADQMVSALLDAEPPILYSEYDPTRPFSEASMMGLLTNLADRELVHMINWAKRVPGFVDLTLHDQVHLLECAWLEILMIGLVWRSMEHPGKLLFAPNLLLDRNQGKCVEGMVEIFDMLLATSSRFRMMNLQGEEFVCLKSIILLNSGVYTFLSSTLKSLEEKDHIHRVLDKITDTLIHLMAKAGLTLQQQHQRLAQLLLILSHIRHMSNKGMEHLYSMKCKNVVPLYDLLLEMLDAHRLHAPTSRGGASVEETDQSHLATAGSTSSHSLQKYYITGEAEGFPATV
T2 sequence (Q96SW2 whole entry, looked up): as the sequence (Q96SW2 whole entry, looked up) above
T3 sequence (P35869 whole entry): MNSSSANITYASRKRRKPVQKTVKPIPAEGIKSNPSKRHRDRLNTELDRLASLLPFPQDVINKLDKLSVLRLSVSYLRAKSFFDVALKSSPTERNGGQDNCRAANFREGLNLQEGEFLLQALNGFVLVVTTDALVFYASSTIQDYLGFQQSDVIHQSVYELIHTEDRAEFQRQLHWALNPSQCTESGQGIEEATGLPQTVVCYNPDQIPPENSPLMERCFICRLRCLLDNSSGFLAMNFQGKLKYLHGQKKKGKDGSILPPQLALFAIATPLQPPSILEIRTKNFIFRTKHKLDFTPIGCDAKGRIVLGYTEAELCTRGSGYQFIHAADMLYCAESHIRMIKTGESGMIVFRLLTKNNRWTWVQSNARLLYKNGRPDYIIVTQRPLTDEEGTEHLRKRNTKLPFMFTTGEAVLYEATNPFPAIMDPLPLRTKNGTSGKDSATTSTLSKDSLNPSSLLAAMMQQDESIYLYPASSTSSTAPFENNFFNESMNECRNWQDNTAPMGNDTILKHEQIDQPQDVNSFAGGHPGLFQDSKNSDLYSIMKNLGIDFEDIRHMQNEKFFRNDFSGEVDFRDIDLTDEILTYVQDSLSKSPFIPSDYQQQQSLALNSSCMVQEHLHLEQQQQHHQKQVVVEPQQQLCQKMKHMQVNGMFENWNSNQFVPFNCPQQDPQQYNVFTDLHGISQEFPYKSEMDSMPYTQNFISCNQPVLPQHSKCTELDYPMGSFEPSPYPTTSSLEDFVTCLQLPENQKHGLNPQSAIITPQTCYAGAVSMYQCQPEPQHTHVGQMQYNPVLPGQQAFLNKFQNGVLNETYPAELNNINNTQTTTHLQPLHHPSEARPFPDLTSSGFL
T3 sequence (Q96SW2 whole entry): as the sequence (Q96SW2 whole entry, looked up) above

- Activity [1]: Dose-dependent effect
- Activity [2]: Dose-dependent effect
- Activity [3]: 80%
- Activity [4]: 97%
- Activity [5]: 51%
- Activity [6]: 108%
- Activity [7]: 85%
- Activity [8]: 57%
- Activity [9]: 84%
- Activity [10]: 89%
- Activity [11]: 79%
- Activity [12]: 85%
- Activity [13]: 64%
- Activity [14]: 51%
- Activity [15]: 124%
- Activity [16]: 123%
- Activity [17]: 115%
- Activity [18]: 101%
- Activity [19]: 111%
- Activity [20]: 133%
- Activity [21]: 92%
- Activity [22]: 119%
- Activity [23]: 78%
- Activity [24]: 117%
- Activity [25]: 123%
- Activity [26]: 107%
- Activity [27]: 93%
- Activity [28]: 93%
Structure (SMILES): CC[C@H](C)[C@@H]1NC(=O)[C@H](NC(=O)[C@@H](N)CCCCNC(=O)CCOCCOCCOCCOCCOCCNc2cccc3c2C(=O)N(C2CCC(=O)NC2=O)C3=O)CSSC[C@@H](C(=O)N[C@@H](CCCNC(=N)N)C(=O)N[C@@H](CC(C)(C)C)C(=O)N[C@@H](CC(C)C)C(=O)N[C@@H](CCC(N)=O)C(=O)NCC(=O)NCC(=O)NCC(=O)N[C@@H](CCCNC(=N)N)C(=O)N[C@@H](CCCNC(=N)N)C(=O)N[C@@H](CCCNC(=N)N)C(=O)N[C@@H](CCCNC(=N)N)C(=O)N[C@@H](CCCNC(=N)N)C(=O)N[C@@H](CCCNC(=N)N)C(=O)N[C@@H](CCCNC(=N)N)C(N)=O)NC(=O)[C@H](CC(C)C)NC1=O (stereo partly drawn)
